Assay results taken from ChEMBL document CHEMBL3880431, “Heme oxygenase inhibitors, screening methods for heme oxygenase inhibitors and methods of use of heme oxygenase inhibitors for antimicrobial therapy” (2013).

Experiments:
Heme oxygenase = target: T1, Heme oxygenase (Pseudomonas aeruginosa, UniProt O69002); assay: Binding affinity to Pseudomonas aeruginosa MPAO1 wild type apo heme oxygenase by spectrofluorimetric analysis
T1 sequence (O69002 whole entry): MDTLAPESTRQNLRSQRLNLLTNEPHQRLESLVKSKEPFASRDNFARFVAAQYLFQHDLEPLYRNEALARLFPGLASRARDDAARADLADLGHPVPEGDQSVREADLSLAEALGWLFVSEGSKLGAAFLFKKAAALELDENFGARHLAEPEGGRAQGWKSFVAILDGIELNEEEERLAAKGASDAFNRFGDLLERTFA

[1] = target: T2, Biliverdin-producing heme oxygenase (Neisseria meningitidis, UniProt Q9AH50); assay: Binding affinity to Neisseria meningitidis wild type apo heme oxygenase expressed in Escherichia coli BL21(DE3) pLysS by spectrofluorimetric analysis
T2 sequence (Q9AH50 whole entry): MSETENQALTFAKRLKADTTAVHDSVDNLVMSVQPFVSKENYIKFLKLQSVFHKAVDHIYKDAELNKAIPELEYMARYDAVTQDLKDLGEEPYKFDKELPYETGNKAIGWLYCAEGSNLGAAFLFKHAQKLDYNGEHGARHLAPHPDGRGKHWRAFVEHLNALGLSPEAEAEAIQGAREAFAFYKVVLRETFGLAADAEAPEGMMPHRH

[2] = Solubility of the compound in methanol; type: physicochemical
[3] = Lipophilicity, log P of the compound; type: physicochemical; details: octanol/water
[4] = Solubility of the compound in ethanol; type: physicochemical

Row | SMILES | solubility [2] | logP ([3]; read-out: logP) | other results
1 | COc1cc(/C=N/Cc2ccco2)ccc1O | Soluble | 2.07 | Kd (Heme oxygenase): Active; Kd [1]: Active
2 | NCC(O)(c1ccc(Cl)cc1)c1ccc(Cl)cc1 | Soluble | 3.63 | 
3 | C=CCNC(=O)C(=O)Nc1ccc(C(C)C)cc1 | Insoluble | 2 | 
4 | COc1ccc(C(=O)/C=C/Nc2ccccc2C#N)cc1 |  | 2.82 | solubility [4]: Insoluble
5 | COc1ccc(C(=O)CCC(=O)O)c(C)c1 |  | 1.6 | solubility [4]: Soluble; Kd (Heme oxygenase): Active; Kd [1]: Active
6 | O=C(O)/C=C\C(=O)Nc1ccc(OCC(=O)O)cc1 | Soluble | 0.6 | 
7 | O=C(NCc1ccco1)c1cc(C(=O)NCc2ccco2)cc([N+](=O)[O-])c1 | Soluble | 1.56 | 
8 | O=C(O)CN1C(=O)c2ccccc2C1=O | Soluble | 0.58 | solubility [4]: Soluble
9 | Nc1cnccc1C(=O)O |  | 0.32 to 3 | Kd (Heme oxygenase; read-out: Kd): 44.7 µM; Kd ([1]; read-out: Kd): 33.5 µM
10 | COC(=O)c1ccc(/C=N/n2cnnc2)cc1 |  | 1.55 | 
11 | CN(CC(=O)O)c1nc2ccc([N+](=O)[O-])cc2s1 | Soluble | 1.92 | Kd (Heme oxygenase): Active; Kd [1]: Active
12 | Cc1cccc2c(CCN)c[nH]c12 |  | 1.9 | 
13 | O=C(CNC(=O)c1cccnc1)N/N=C/c1ccccn1 | Soluble | 0.32 | 
14 | Cc1ccc(CN2CCN(Cc3ccccc3)CC2)cc1 | Insoluble | 3.57 | 
15 | Nc1cc(-c2ccc(F)cc2)nc(N)n1 |  | 1.07 | solubility [4]: Soluble; Kd (Heme oxygenase): Active; Kd [1]: Active
16 | Nc1cc2nc3ccccc3nc2cc1N |  | 1.66 | 
17 | O=C(Cc1ccc(Cl)cc1)N/N=C/c1c[nH]c2ccccc12 | Soluble | 4.74 | 
18 | CC(N)c1ccc2ccccc2c1 (configuration not stated) |  | 2.88 | 
19 | Nc1nonc1-n1cc(-c2ccccc2)nn1 |  | 1.15 | 
20 | Nn1c(=O)[nH]c2c([nH]c3ccccc32)c1=O |  | 0.26 | 
21 | O=C(O)CCC(=O)Nc1ccc(Oc2ccccc2)cc1 |  | 2.36 | 
22 | C1CN2CCC1/C(=N\Nc1nnn[nH]1)C2 |  | 1.56 | 

Row | SMILES | solubility [2] | logP ([3]; read-out: logP) | other results
23 | Oc1ccccc1/C=N/Nc1nnn[nH]1 | Insoluble | 3.23 | 
24 | O=C(O)c1ccccc1-c1nc(O)c2ccccc2n1 |  | 2.25 | 
25 | COc1ccc(C(=O)COC(=O)/C=C/c2ccccc2)cc1 | Insoluble | 3.7 | 
26 | CNCc1ccccc1Sc1cccc(OC)c1 |  | 3.92 | 
27 | COc1ccc(C(N)Cc2cnc[nH]2)cc1 (configuration not stated) |  | 0.81 | 
28 | O=C(O)Cn1c(=O)c2cc3c(=O)n(CC(=O)O)c(=O)c3cc2c1=O | Insoluble | -0.68 | Kd (Heme oxygenase; read-out: Kd): 6.1 µM; Kd ([1]; read-out: Kd): 20.9 µM
29 | O=c1nc2oc3cc(O)ccc3cc-2c(=O)[nH]1 |  | 1.25 | 
30 | NC(=O)c1ccc(NC(=O)/C=C\C(=O)O)cc1Cl | Soluble | 0.79 | Kd (Heme oxygenase; read-out: Kd): 187 µM; Kd ([1]; read-out: Kd): 239 µM
31 | CCc1ccc2[nH]c3nc(N/N=C/c4ccc(Cl)cc4)nnc3c2c1 | Insoluble | 7.15 | 
32 | COc1ccc(CNC(=N)NC(=N)N)cc1 |  | 1.46 | 
33 | O=C(Cc1n[nH]c(=O)[nH]c1=O)N/N=C/c1cccc([N+](=O)[O-])c1 |  | 0.86 | solubility [4]: Insoluble
34 | O=C(Cc1ccc(F)cc1)NNC(=O)Cn1cnnn1 |  | -0.66 | 
35 | Cc1c(OC(C)C(=O)O)ccc2c3c(c(=O)oc12)CCC3 (configuration not stated) | Insoluble | 2.6 | 
36 | CC(=O)Nc1ccc(/N=C/c2ccco2)cc1 | Soluble | 1.54 | 
37 | O=C(NNC(=O)c1ccncc1)c1ccncc1 | Soluble |  | logP [3]: 0.05
38 | O=C(O)C(O)c1cccc([N+](=O)[O-])c1 (configuration not stated) |  | 0.98 | 
39 | C=CCNc1nc(-c2cccs2)c(CC(=O)O)s1 |  | 2.29 | 
40 | O=C(Cc1ccc([N+](=O)[O-])cc1)N/N=C/c1ccc(O)cc1 | Insoluble | 3.41 | 
41 | N#CCc1ccc(NC2=NS(=O)(=O)c3ccccc32)cc1 | Insoluble | 2.81 | 
42 | NCCNc1nc(-c2ccccc2)nnc1-c1ccc(Cl)cc1 |  | 3.6 | 
43 | Cc1ccccc1C(=O)O/N=C(\N)c1cccnc1 |  | 2.61 | 
